Patent publication US12161669B2, “Compositions and methods for cell targeting therapies” (UMC UTRECHT HOLDING B.V., priority 2017, dated 2024)

How the values were obtained:
Assay type in all cases: cell-based
RhoB and CD277 = test: Proximity ligation assay of RhoB and CD277 in EBV-LCL 48 cells; settings: ABP pretreated vs medium
CD277 [1] = test: Flow cytometry FRET between BODIPY FL-stained membrane and anti-CD277 mAbs (CD277 conformational change), HEK 293 cells; settings: ABP vs unstimulated
Description: Conformational change of BTN3 molecule was determined similarly as described in ([…] et al., 2001). Cells were labeled with 5 ug/ml BODIPY-FL DPHE (donor) (Life Technologies) for 10 minutes on ice and then 10 minutes at 37 C, then washed extensively with ice-cold PBS. Cells were subsequently labeled with mouse anti-CD277 mAbs (either clone #20.1 or #103.2) and Alexa594-conjugated Goat anti-Mouse Fab fragments (Jackson ImmunoResearch). After washing, cells were resuspended in ice cold PBS and measured immediately using a FACS Canto-II flowcytometer (BD). FRET efficiency was calculated from the fractional decrease of the donor fluorescence in the presence of the acceptor.

HEK293FT tumor cells = test: Tumor cell-T cell conjugate formation with HEK293FT cells (confocal); settings: Jurma cells expressing γδTCRs, 100 μM PAM
Description: HEK293FT cells were seeded in μ-slide poly-L-lysine pre coated chamber (Ibidi) to adhere overnight. Next day cells were treated with 100 μM PAM for one hour at 37° C. TEGs were added onto HEK293FT cells and incubated at 37° C. for 30-120 minutes. After co-incubation chambers were immediately placed onto ice and fixed with 4% PFA for 30 minutes. Samples were blocked with 1% BSA/FCS and labeled with CD3ε-Alexa Fluor 647 (BD Biosciences) at 2 μg/mL for two hours at room temperature, and finally fixed with 1% PFA+DAPI. Samples were imaged with Zeiss LSM-710 and analyzed with Volocity software (PerkinElmer). In order to quantify the number of conjugates between HEK293FT and TEG cells we calculated the ratio between CD3c positive objects and DAPI positive objects on each image taken. To analyse gamma delta TCR enrichment into the immunological synapse, we calculated the ratio of CD3c signal enrichment inside the contact area versus outside of contact area of the target and effector cell on 63× magnified images. To further assess whether distinct functional avidity of γ9δ2TCRs when expressed in the TEG format is regulated by their ability to mediate binding of TEGs to tumor cell targets a more dynamic model was utilized. […] The number of tumor cell-T cell conjugates was assessed. […]

CD277 [2] = test: dSTORM super-resolution imaging of CD277 clusters on HEK293FT cells; settings: 100 uM pamidronate vs medium, DBSCAN
Description: HEK293FT cells were plated in eight-well Lab-Tek chambers to adhere and treated with 100 uM pamidronate overnight. For super-resolution imaging, cells were labeled with AF647-CD277 at RT. After labeling, cells were washed with PBS and fixed with 4% PFA and 0.2% gluteraldehyde for 1-2 h. Prior to super-resolution imaging, 200 μL of fresh SRB (Super-resolution buffer: 50 mM Tris, 10 mM NaCl, 10% glucose, 168.8 U/mL glucose oxidase, 1404 U/mL catalase, 10 mM cysteamine hydrochloride, pH 8.0) was added to the well. dSTORM imaging was performed using an inverted microscope (IX71; Olympus America) equipped with an oil-immersion objective 1.45-NA total internal reflection fluorescence objective (U-APO 150×; Olympus America). […]
dSTORM images were analyzed and reconstructed with custom-built MATLAB functions as described previously (Smith et al 2010, Nat Methods: Huang et al 2011, Biomed Opt Express). […]
Finally, in order to understand whether the enhanced recruitment of low affinity CTE-C13 TCR in the synapse was a result of changes in CD277 clustering due to the PAM treatment, direct stochastic optical reconstruction microscopy (dSTORM), a localization-based super-resolution imaging technique that provides ˜20 nm resolution was performed. […] To quantify the images, a density-based spatial clustering application (DBSCAN) was utilized. […]

SMILES: NCCC(O)(P(=O)(O)O)P(=O)(O)O [pamidronate]
- proximity of RhoB and CD277 (PLA signal) (RhoB and CD277): in close proximity
- FRET between stained membrane and anti-CD277 antibodies (20.1, 103.2) (CD277 [1]): marked reduction in FRET signals
- number of tumor cell-T cell conjugates, effect of PAM (HEK293FT tumor cells): increased the number of conjugates
- CD277 localization cluster size, density or number (CD277 [2]): did not dramatically change
